Experimental findings from US5908851A (priority 1995, dated 1999) are described below.

The structures appear in SMILES notation. Like-named read-outs stand apart in the source and are kept apart here.

Test [1] addresses T1, recombinant matrilysin (PUMP-1) (Homo sapiens, UniProt P09237).
T1 sequence (P09237 95-267): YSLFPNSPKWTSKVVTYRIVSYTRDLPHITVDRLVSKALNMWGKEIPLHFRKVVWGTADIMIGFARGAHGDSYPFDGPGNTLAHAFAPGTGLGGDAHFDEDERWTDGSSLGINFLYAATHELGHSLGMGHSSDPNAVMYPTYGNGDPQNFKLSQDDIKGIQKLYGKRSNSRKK
Briefly: Inhibition of recombinant matrilysin (PUMP-1, MMP-7), 14C-acetylated casein. The format is biochemical. The settings on record: 37° C., 16 hours, pH 7.6; read-out: In vitro inhibitory activity IC50, Matrilysin (MMP-7).

In test [2] the target is T2, human fibroblast collagenase (Homo sapiens, UniProt P03956).
T2 sequence (P03956 100-469): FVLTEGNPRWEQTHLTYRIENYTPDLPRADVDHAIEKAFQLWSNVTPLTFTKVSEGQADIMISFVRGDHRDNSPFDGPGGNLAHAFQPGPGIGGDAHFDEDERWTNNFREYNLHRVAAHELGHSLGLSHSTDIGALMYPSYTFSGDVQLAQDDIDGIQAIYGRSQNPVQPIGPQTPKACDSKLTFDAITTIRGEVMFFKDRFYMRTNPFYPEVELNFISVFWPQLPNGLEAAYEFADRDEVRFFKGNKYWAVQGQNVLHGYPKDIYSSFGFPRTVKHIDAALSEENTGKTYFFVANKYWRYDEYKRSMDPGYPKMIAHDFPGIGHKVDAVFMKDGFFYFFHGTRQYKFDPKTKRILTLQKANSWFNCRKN
The test is described as follows: Inhibition of human fibroblast collagenase (MMP-1), 14C-acetylated collagen. The class given is biochemical. As to conditions: for IC50: 37° C., 16 hours, pH 7.5, read-out: In vitro inhibitory activity IC50, Fib. Collag. (MMP-1); for inhibition at 100 µM: read-out: % I (inhibition), Fib. Collag. (MMP-1).
Source text: The samples were centrifuged to sediment undigested collagen, and an aliquot of the radioactive supernatant removed for assay on a scintillation counter as a measure of hydrolysis.

In test [3] the target is T3, stromelysin-1 (Homo sapiens, UniProt P08254). Briefly: biochemical.
Source text: (§1) The casein was acetylated ^14 C casein prepared by the method of Cawston et al. (ibid.).
Test [4] addresses T4, 72 kDa gelatinase (Homo sapiens, UniProt P08253).
T4 sequence (P08253 110-660): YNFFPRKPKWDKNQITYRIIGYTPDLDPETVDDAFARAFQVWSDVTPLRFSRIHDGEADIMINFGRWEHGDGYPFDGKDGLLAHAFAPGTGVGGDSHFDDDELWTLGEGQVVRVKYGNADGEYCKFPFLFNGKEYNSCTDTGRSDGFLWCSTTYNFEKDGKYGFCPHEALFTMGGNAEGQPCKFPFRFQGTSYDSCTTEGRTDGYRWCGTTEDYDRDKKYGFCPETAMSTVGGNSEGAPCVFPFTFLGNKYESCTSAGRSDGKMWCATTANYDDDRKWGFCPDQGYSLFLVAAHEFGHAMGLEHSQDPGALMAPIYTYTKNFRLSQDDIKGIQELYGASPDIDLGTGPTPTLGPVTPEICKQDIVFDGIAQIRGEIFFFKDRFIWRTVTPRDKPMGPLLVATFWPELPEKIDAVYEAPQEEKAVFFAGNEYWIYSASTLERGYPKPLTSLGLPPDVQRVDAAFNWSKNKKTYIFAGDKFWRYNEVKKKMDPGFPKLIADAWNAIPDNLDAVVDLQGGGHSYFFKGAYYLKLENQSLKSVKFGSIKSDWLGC
The test is described as follows: biochemical.

Test [5] deals with T4, 72 kDa gelatinase. As to conditions: read-out: In vitro inhibitory activity IC50, Gelatinase A (MMP-2); 37° C., 16 hours; enzyme from RPMI-7951 cells.
The target in test [6] is T3, stromelysin-1. As to conditions: read-out: In vitro inhibitory activity IC50, Stromelysin-1 (MMP-3); 37° C., 16 hours, pH 7.5.
Source text: as §1

T3 sequence (P08254 100-477, species assumed): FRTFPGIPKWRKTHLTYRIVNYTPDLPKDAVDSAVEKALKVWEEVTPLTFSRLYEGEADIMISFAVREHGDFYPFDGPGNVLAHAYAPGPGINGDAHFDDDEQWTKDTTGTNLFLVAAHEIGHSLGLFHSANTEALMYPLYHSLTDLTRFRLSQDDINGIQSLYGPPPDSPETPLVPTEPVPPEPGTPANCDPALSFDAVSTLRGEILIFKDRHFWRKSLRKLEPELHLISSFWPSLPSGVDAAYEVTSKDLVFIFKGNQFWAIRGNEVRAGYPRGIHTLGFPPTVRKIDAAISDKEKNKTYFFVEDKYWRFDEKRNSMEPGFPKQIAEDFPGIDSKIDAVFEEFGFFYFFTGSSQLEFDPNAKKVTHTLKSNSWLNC

In the case of `C=CC[C@H](C(=O)NO)[C@@H](CC(C)C)C(=O)N[C@H](C(=O)NC)C(C)(C)C` [Comparator 2, 2S-Allyl-N^4-(2,2-dimethyl-1S-methylcarbamoyl-propyl)-N^1-hydroxy-3R-isobutyl-succinamide, reference compound], the IC50 in test [1] was 20 nM.
On to `CC(C)C[C@@H](C(=O)N[C@H](C(=O)NC(c1ccccc1)c1ccccc1)C(C)(C)C)[C@H](O)C(=O)NO` [Example 1, N^4-[1S-(Benzhydryl-carbamoyl)-2,2-dimethyl-propyl]-2S,N^1-dihydroxy-3R-isobutyl-succinamide], for which the concentration for half-maximal inhibition (IC50) in test [2] worked out at 600 nM; in test [1], 4 nM; on stromelysin-1 [3], 50 nM; at 72 kDa gelatinase [4], 3000 nM.
The like results for `CC(C)C[C@@H](C(=O)N[C@H](C(=O)NC1c2ccccc2-c2ccccc21)C(C)(C)C)[C@H](O)C(=O)NO` [Example 2, N^4-[1S-(9H-Fluoren-9-ylcarbamoyl)-2,2-dimethyl-propyl]-2S,N^1-dihydroxy-3R-isobutyl-succinamide] were, in that order, 2000 nM, 70 nM, 200 nM and 17000 nM.
The like results for `CC(C)C[C@@H](C(=O)N[C@H](C(=O)NC(c1ccccc1)c1ccc(Cl)cc1)C(C)(C)C)[C@H](O)C(=O)NO` (stereo partly drawn) [Example 3, N^4-(1S-{[(4-Chloro-phenyl)-phenyl-methyl]-carbamoyl}-2,2-dimethyl-propyl)-2R,N^1-dihydroxy-3R-isobutyl-succinamide] were, in that order, 400 nM, 10 nM, 200 nM and 2000 nM.
The like results for `CC(C)C[C@@H](C(=O)N[C@H](C(=O)NC(c1ccccc1)c1ccc(F)cc1)C(C)(C)C)[C@H](O)C(=O)NO` (stereo partly drawn) [Example 4, N^4-(1S-{[(4-Fluoro-phenyl)-phenyl-methyl]-carbamoyl}-2,2-dimethyl-propyl)-2S,N^1-dihydroxy-3-isobutyl-succinamide] were, in that order, 400 nM, 9 nM, 60 nM and 500 nM.
On to `CC(C)C[C@@H](C(=O)N[C@H](C(=O)NC(c1ccccc1)c1ccccc1F)C(C)(C)C)[C@H](O)C(=O)NO` (stereo partly drawn) [Example 5, N^4-(1S-{[(2-Fluoro-phenyl)-phenyl-methyl]-carbamoyl}-2,2-dimethyl-propyl)-2S,N^1-dihydroxy-3R-isobutyl-succinamide], for which the 50% inhibitory concentration (IC50) came out at 700 nM in test [2], 9 nM in test [1], 100 nM on stromelysin-1 [3] and 600 nM at 72 kDa gelatinase [4].
With `CC(C)C[C@@H](C(=O)N[C@H](C(=O)NC(c1ccccc1)c1ccccc1)C(C)(C)O)[C@H](O)C(=O)NO` [Example 6, N^4-[1S-(Benzhydryl-carbamoyl)-2-hydroxy-2-methyl-propyl]-2S, N^1-dihydroxy-3R-isobutyl-succinamide], the half-maximal inhibitory concentration (IC50) in test [2] came out at 2000 nM; in test [1] it was 15 nM; against stromelysin-1 [3], 200 nM; on 72 kDa gelatinase [4], 600 nM.
For `CO[C@H](C(=O)O)[C@@H](CC(C)C)C(=O)N[C@H](C(=O)NC(c1ccccc1)c1ccccc1)C(C)(C)O` [Example 7, N^4-[1S-(Benzhydryl-carbamoyl)-2-hydroxy-2-methyl-propylcarbamoyl]-2S-methoxy-5R-methyl-hexanoic acid], the inhibition at 100 µM in test [2] is 40%; at 72 kDa gelatinase [4] (read-out: % I (inhibition), Gelatinase A (MMP-2)), 50%. The IC50 on stromelysin-1 [3] was found to be 20000 nM.
Consider `CO[C@H](C(=O)NO)[C@@H](CC(C)C)C(=O)N[C@H](C(=O)NC(c1ccccc1)c1ccccc1)C(C)(C)O` [Example 8], for which the half-maximal inhibitory concentration (IC50) in test [2] was determined as 700 nM; in test [1], 9 nM; against stromelysin-1 [3] it was 20 nM; against 72 kDa gelatinase [4] it was 1000 nM.
Take `CC(C)(C)[C@H](NC(=O)[C@H](C/C=C/c1ccccc1)[C@H](O)C(=O)NO)C(=O)NC(c1ccccc1)c1ccccc1` [Example 9, N^4-[1S-(Benzhydryl-carbamoyl)-2,2-dimethyl-propyl]-2S,N^1-dihydroxy-3R-(3-phenyl-allyl)-succinamide]: the half-maximal inhibitory concentration (IC50) on 72 kDa gelatinase [5] was found to be 40000 nM; on stromelysin-1 [6], 800 nM; in test [1], 500 nM. Besides, in test [2], the inhibition at 100 µM is 30%.
Consider `CC(C)(C)[C@H](NC(=O)[C@H](CCCc1ccccc1)[C@H](O)C(=O)NO)C(=O)NC(c1ccccc1)c1ccccc1` [Example 10, N^4-[1S-(Benzhydryl-carbamoyl)-2,2-dimethyl-propyl]-2S,N^1-dihydroxy-3R-(3-phenyl-propyl)-succinamide], for which the figures for the IC50 in test [2] and in test [1] were 10000 nM and 1000 nM, respectively.
Consider `CC(C)C[C@@H](C(=O)N[C@H](C(=O)NC(c1ccccn1)c1ccccn1)C(C)(C)C)[C@H](O)C(=O)NO` [Example 11, N^4 -{1S-[(Di-pyridin-2-yl-methyl)-carbamoyl]-2,2-dimethyl-propyl}-2S,N^1-dihydroxy-3R-isobutyl-succinamide], for which the IC50 in test [2] was determined as 300 nM; in test [1], 20 nM; against stromelysin-1 [3], 200 nM; at 72 kDa gelatinase [4], 1000 nM.
As for `C=CC[C@H](C(=O)NO)[C@@H](CC(C)C)C(=O)N[C@H](C(=O)NC(c1ccccc1)c1ccccc1)C(C)(C)C` [Example 12, 2S-Allyl-N^4-[1S-(benzhydryl-carbamoyl)-2,2-dimethyl-propyl]-N^1-hydroxy-3R-isobutyl-succinamide], the 50% inhibitory concentration (IC50) in test [2] is 800 nM; in test [1], 30 nM; against stromelysin-1 [3], 80 nM; against 72 kDa gelatinase [4] it was 40000 nM.
The like results for `C=CC[C@H](C(=O)NO)[C@@H](CCCCCCCC)C(=O)N[C@H](C(=O)NC(c1ccccc1)c1ccccc1)C(C)(C)C` [Example 13, 2S-Allyl-N^4-[1S-(benzhydryl-carbamoyl)-2,2-dimethyl-propyl]-N^1-hydroxy-3R-octyl-succinamide] were, in that order, 30000 nM, 400 nM, 60 nM and 20000 nM.

Usually IC50 stands for the midpoint of a concentration-inhibition curve. What is called inhibition is how much of the control response was suppressed.
